Activity calls are given as the source filed them. The rule behind the calls is not given here.
System: CCRIS mutagenicity, Ames/micronucleus/aberration tests
Assay: CCRIS mutagenicity studies
[1] = Test System: AMES SALMONELLA TYPHIMURIUM, Strain/Indicator: TA98, Metabolic Activation: NONE, Method: PREINCUBATION
[2] = Test System: AMES SALMONELLA TYPHIMURIUM, Strain/Indicator: TA100, Metabolic Activation: NONE, Method: PREINCUBATION
[3] = Test System: AMES SALMONELLA TYPHIMURIUM, Strain/Indicator: TA1535, Metabolic Activation: NONE, Method: PREINCUBATION

Compound: CC(=O)NBr
- mutagenic call (Test System: AMES SALMONELLA TYPHIMURIUM, Strain/Indicator: TA97, Metabolic Activation: HAMSTER, LIVER, S-9, AROCLOR 1254 (10%), Method: PREINCUBATION): inactive; negative
- mutagenic call (Test System: AMES SALMONELLA TYPHIMURIUM, Strain/Indicator: TA97, Metabolic Activation: HAMSTER, LIVER, S-9, AROCLOR 1254 (30%), Method: PREINCUBATION): inactive; negative
- mutagenic call (Test System: AMES SALMONELLA TYPHIMURIUM, Strain/Indicator: TA97, Metabolic Activation: NONE, Method: PREINCUBATION): inactive; negative
- mutagenic call (Test System: AMES SALMONELLA TYPHIMURIUM, Strain/Indicator: TA97, Metabolic Activation: RAT, LIVER, S-9, AROCLOR 1254 (10%), Method: PREINCUBATION): inactive; negative
- mutagenic call (Test System: AMES SALMONELLA TYPHIMURIUM, Strain/Indicator: TA97, Metabolic Activation: RAT, LIVER, S-9, AROCLOR 1254 (30%), Method: PREINCUBATION): inactive; negative
- mutagenic call (Test System: AMES SALMONELLA TYPHIMURIUM, Strain/Indicator: TA98, Metabolic Activation: HAMSTER, LIVER, S-9, AROCLOR 1254 (10%), Method: PREINCUBATION): inactive; negative
- mutagenic call (Test System: AMES SALMONELLA TYPHIMURIUM, Strain/Indicator: TA98, Metabolic Activation: HAMSTER, LIVER, S-9, AROCLOR 1254 (30%), Method: PREINCUBATION): inactive; negative
- mutagenic call [1]: inactive; negative
- mutagenic call (Test System: AMES SALMONELLA TYPHIMURIUM, Strain/Indicator: TA98, Metabolic Activation: RAT, LIVER, S-9, AROCLOR 1254 (10%), Method: PREINCUBATION): inactive; negative
- mutagenic call (Test System: AMES SALMONELLA TYPHIMURIUM, Strain/Indicator: TA98, Metabolic Activation: RAT, LIVER, S-9, AROCLOR 1254 (30%), Method: PREINCUBATION): inactive; negative
- mutagenic call (Test System: AMES SALMONELLA TYPHIMURIUM, Strain/Indicator: TA100, Metabolic Activation: HAMSTER, LIVER, S-9, AROCLOR 1254 (10%), Method: PREINCUBATION): inactive; negative
- mutagenic call (Test System: AMES SALMONELLA TYPHIMURIUM, Strain/Indicator: TA100, Metabolic Activation: HAMSTER, LIVER, S-9, AROCLOR 1254 (30%), Method: PREINCUBATION): inactive; negative
- mutagenic call [2]: inactive; negative
- mutagenic call (Test System: AMES SALMONELLA TYPHIMURIUM, Strain/Indicator: TA100, Metabolic Activation: RAT, LIVER, S-9, AROCLOR 1254 (10%), Method: PREINCUBATION): inactive; negative
- mutagenic call (Test System: AMES SALMONELLA TYPHIMURIUM, Strain/Indicator: TA100, Metabolic Activation: RAT, LIVER, S-9, AROCLOR 1254 (30%), Method: PREINCUBATION): inactive; negative
- mutagenic call (Test System: AMES SALMONELLA TYPHIMURIUM, Strain/Indicator: TA1535, Metabolic Activation: HAMSTER, LIVER, S-9, AROCLOR 1254 (10%), Method: PREINCUBATION): inactive; negative
- mutagenic call (Test System: AMES SALMONELLA TYPHIMURIUM, Strain/Indicator: TA1535, Metabolic Activation: HAMSTER, LIVER, S-9, AROCLOR 1254 (30%), Method: PREINCUBATION): inactive; negative
- mutagenic call [3]: inactive; negative
- mutagenic call (Test System: AMES SALMONELLA TYPHIMURIUM, Strain/Indicator: TA1535, Metabolic Activation: RAT, LIVER, S-9, AROCLOR 1254 (10%), Method: PREINCUBATION): inactive; negative
- mutagenic call (Test System: AMES SALMONELLA TYPHIMURIUM, Strain/Indicator: TA1535, Metabolic Activation: RAT, LIVER, S-9, AROCLOR 1254 (30%), Method: PREINCUBATION): inactive; negative

Compound: ICI
- mutagenic call (Test System: AMES SALMONELLA TYPHIMURIUM, Strain/Indicator: TA102, Metabolic Activation: NONE, Method: STANDARD PLATE): inactive; negative
- mutagenic call (Test System: AMES SALMONELLA TYPHIMURIUM, Strain/Indicator: TA2638, Metabolic Activation: NONE, Method: STANDARD PLATE): inactive; negative
- mutagenic call (Test System: E. COLI, Strain/Indicator: WP2 (PKM101), Metabolic Activation: NONE, Method: STANDARD PLATE): inactive; negative
- mutagenic call (Test System: E. COLI, Strain/Indicator: WP2 UVRA (PKM101), Metabolic Activation: NONE, Method: STANDARD PLATE): active; positive

Compound: C=CC(=O)NC(C)(C)CC(C)=O
- mutagenic call (Test System: AMES SALMONELLA TYPHIMURIUM, Strain/Indicator: TA98, Metabolic Activation: HAMSTER, LIVER, S-9, AROCLOR 1254, Method: PREINCUBATION): inactive; negative
- mutagenic call [1]: inactive; negative
- mutagenic call (Test System: AMES SALMONELLA TYPHIMURIUM, Strain/Indicator: TA98, Metabolic Activation: RAT, LIVER, S-9, AROCLOR 1254, Method: PREINCUBATION): inactive; negative
- mutagenic call (Test System: AMES SALMONELLA TYPHIMURIUM, Strain/Indicator: TA100, Metabolic Activation: HAMSTER, LIVER, S-9, AROCLOR 1254, Method: PREINCUBATION): inactive; negative
- mutagenic call [2]: inactive; negative
- mutagenic call (Test System: AMES SALMONELLA TYPHIMURIUM, Strain/Indicator: TA100, Metabolic Activation: RAT, LIVER, S-9, AROCLOR 1254, Method: PREINCUBATION): inactive; negative
- mutagenic call (Test System: AMES SALMONELLA TYPHIMURIUM, Strain/Indicator: TA1535, Metabolic Activation: HAMSTER, LIVER, S-9, AROCLOR 1254, Method: PREINCUBATION): inactive; negative
- mutagenic call [3]: inactive; negative
- mutagenic call (Test System: AMES SALMONELLA TYPHIMURIUM, Strain/Indicator: TA1535, Metabolic Activation: RAT, LIVER, S-9, AROCLOR 1254, Method: PREINCUBATION): inactive; negative
- mutagenic call (Test System: AMES SALMONELLA TYPHIMURIUM, Strain/Indicator: TA1537, Metabolic Activation: HAMSTER, LIVER, S-9, AROCLOR 1254, Method: PREINCUBATION): inactive; negative
- mutagenic call (Test System: AMES SALMONELLA TYPHIMURIUM, Strain/Indicator: TA1537, Metabolic Activation: NONE, Method: PREINCUBATION): inactive; negative
- mutagenic call (Test System: AMES SALMONELLA TYPHIMURIUM, Strain/Indicator: TA1537, Metabolic Activation: RAT, LIVER, S-9, AROCLOR 1254, Method: PREINCUBATION): inactive; negative

Compound: CCOP(=O)(OCC)SCCSCC (tested in a mixture with another compound)
- mutagenic call (Test System: E. COLI, Strain/Indicator: WP2 UVRA, Metabolic Activation: NONE, Method: STANDARD PLATE): active; positive
- mutagenic call (Test System: E. COLI, Strain/Indicator: WP2 UVRA, Metabolic Activation: RAT, LIVER, S-9, AROCLOR 1254, Method: STANDARD PLATE): active; positive
- mutagenic call (Test System: UDS HUMAN FIBROBLASTS, Strain/Indicator: THY INCORP (NON-S-PHASE), Metabolic Activation: NONE, Method: LIQUID SCINTILLATION COUNTING): active; positive

Compound: CC(C)CCC[C@@H](C)[C@H]1CC[C@H]2[C@@H]3C[C@H]4O[C@]45C[C@@H](O)CC[C@]5(C)[C@H]3CC[C@]12C
- mutagenic call (Test System: CHINESE HAMSTER V-79, Strain/Indicator: V-79/6-THIOGUANINE, Metabolic Activation: NONE): active; positive
- mutagenic call (Test System: CHINESE HAMSTER V-79, Strain/Indicator: V-79/OUABAIN, Metabolic Activation: NONE): inactive; negative

Compound: CC/C=C/C=C/C=C/C=C/C=O
- mutagenic call (Test System: AMES SALMONELLA TYPHIMURIUM, Strain/Indicator: TA98, Metabolic Activation: NONE, Method: STANDARD PLATE): inactive; negative
- mutagenic call (Test System: AMES SALMONELLA TYPHIMURIUM, Strain/Indicator: TA100, Metabolic Activation: NONE, Method: STANDARD PLATE): inactive; negative
- mutagenic call (Test System: AMES SALMONELLA TYPHIMURIUM, Strain/Indicator: TA104, Metabolic Activation: NONE, Method: STANDARD PLATE): inactive; negative

Compound: CCc1c2ccccc2c(C)c2ccc3ccccc3c12
- mutagenic call (Test System: AMES SALMONELLA TYPHIMURIUM, Strain/Indicator: TA98, Method: STANDARD PLATE): inactive; negative
- mutagenic call (Test System: AMES SALMONELLA TYPHIMURIUM, Strain/Indicator: TA100, Metabolic Activation: RAT, LIVER, S-9, PHENOBARBITAL, Method: STANDARD PLATE): inactive; negative
- mutagenic call (Test System: AMES SALMONELLA TYPHIMURIUM, Strain/Indicator: TA100, Method: STANDARD PLATE): inactive; negative

Compound: ClCC(Br)CCl
- mutagenic call (Test System: AMES SALMONELLA TYPHIMURIUM, Strain/Indicator: TA100, Metabolic Activation: RAT, LIVER, MICROSOMES, PHENOBARBITAL, NADPH COFACTORS, Method: STANDARD PLATE): active; positive
- mutagenic call (Test System: AMES SALMONELLA TYPHIMURIUM, Strain/Indicator: TA100, Metabolic Activation: RAT, LIVER, MICROSOMES, PHENOBARBITAL, Method: STANDARD PLATE): inactive; negative

Reference: PubChem BioAssay AID1259407 (Chemical Carcinogenesis Research Information System (CCRIS), 2018)
